Measured values as given in patent US20250101038A1, “COMPOUNDS” (priority 2021, published 2025).

What was measured:
[1] = molecular target: T1, 5-HT2A receptor (Homo sapiens, UniProt P28223); test: FLIPR Ca2+ flux functional assay, 5-HT2A; type: cell-based; conditions: agonist activity, Ca2+ flux, HEK293 cells
T1 construct: host or cells: HEK293

[2] = molecular target: T2, 5-HT2B receptor (Homo sapiens, UniProt P41595); test: cell-based; conditions: agonist activity, Ca2+ flux, CHO-K1 cells
T2 construct: host or cells: CHO-K1

[3] = molecular target: T3, 5-HT2C receptor (Homo sapiens, UniProt P28335); test: cell-based; conditions: agonist activity, Ca2+ flux, HEK293 cells
T3 construct: host or cells: HEK293
T3 sequence (P28335 33-458): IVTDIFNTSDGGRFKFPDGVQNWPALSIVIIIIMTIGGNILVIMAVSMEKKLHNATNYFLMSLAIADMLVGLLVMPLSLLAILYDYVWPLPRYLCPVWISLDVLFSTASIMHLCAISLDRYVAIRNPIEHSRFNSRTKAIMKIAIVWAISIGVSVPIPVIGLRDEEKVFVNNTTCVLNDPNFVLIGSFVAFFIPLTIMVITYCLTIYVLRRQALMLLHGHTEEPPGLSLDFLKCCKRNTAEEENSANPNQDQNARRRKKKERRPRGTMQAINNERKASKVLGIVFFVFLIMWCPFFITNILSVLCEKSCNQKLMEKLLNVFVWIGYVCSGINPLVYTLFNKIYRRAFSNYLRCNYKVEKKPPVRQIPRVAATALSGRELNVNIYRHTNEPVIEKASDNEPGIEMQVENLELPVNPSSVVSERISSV

[4] = system: ARS-TST mouse model of depression; test: Acute restraint stress tail suspension test (ARS-TST); type: in vivo; conditions: male ICR mice, intraperitoneal, tested 10 minutes after treatment
Description: Male ICR mice (23±3 g) were purchased from BioLASCO (Taipei, Taiwan) at 4-5 weeks of age and allowed 5-7 days to acclimate to the animal research facility at Pharmacology Discovery Services (Taipei, Taiwan). Mice were housed in groups of 10 in a large cage (47×25×15 cm) on a 12-hour light cycle (lights on: 0700) and provided ad libitum food and water except during acute restraint stress and tail-suspension testing. Temperature was maintained at 20-24° C., and all rooms (colony and testing rooms) had similar lighting intensity. All aspects of this work including housing, experimentation, and animal disposal were performed in accordance with the “Guide for the Care and Use of Laboratory Animals: Eighth Edition” (The National Academies Press, Washington, DC, 2011) in a facility accredited by the Association for Assessment and Accreditation of Laboratory Animal Care. […]
Tail Suspension Test (TST) Procedure: Mice were individually suspended on the edge of a shelf, 58 cm above a tabletop, using adhesive tape placed approximately 1 cm from the tip of the tail, for a total duration of 7 minutes. Using a stopwatch, the experimenters blinded to treatment groups recorded the duration of immobility (defined as hanging passively and motionless) during the 5 minutes spanning from 2-7 minutes. The data from 0-2 minutes was not recorded. […]

T1 sequence (P28223 whole entry): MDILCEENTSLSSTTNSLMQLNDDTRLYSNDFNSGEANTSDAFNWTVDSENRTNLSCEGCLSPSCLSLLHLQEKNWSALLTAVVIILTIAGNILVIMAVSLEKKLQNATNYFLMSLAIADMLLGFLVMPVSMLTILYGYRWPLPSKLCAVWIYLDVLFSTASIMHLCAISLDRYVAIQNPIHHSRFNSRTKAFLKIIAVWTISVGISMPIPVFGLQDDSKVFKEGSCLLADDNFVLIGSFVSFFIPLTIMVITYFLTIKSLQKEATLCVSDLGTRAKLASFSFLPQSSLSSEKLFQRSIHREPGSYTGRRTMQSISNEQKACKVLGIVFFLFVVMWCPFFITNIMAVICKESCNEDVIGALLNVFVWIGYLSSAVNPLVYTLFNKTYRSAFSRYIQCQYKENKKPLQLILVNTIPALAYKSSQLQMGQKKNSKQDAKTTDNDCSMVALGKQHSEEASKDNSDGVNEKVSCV
T2 sequence (P41595 whole entry): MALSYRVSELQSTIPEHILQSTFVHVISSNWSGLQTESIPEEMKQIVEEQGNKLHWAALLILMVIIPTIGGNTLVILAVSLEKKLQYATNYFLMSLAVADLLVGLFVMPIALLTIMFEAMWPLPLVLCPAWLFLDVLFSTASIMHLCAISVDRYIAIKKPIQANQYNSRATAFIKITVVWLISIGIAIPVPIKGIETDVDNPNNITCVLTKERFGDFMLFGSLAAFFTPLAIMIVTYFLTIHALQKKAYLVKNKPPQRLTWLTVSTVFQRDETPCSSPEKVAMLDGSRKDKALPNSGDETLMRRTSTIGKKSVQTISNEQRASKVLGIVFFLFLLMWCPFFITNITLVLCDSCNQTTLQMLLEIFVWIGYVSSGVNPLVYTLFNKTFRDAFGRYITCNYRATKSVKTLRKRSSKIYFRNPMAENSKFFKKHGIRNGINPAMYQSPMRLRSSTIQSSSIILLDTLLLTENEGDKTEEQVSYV

Row | Compound | Emax [1] [%] | Emax [2] [%] | Emax [3] [%] | immobility time [4]
1 | CCN(C)CCc1c[nH]c2c(C)cc(OC)cc12 [Example P-51, N-ethyl-2-(5-methoxy-7-methyl-1H-indol-3-yl)-N-methylethan-1-amine] | 69.2 | 0.85 | 57.3 | decrease immobility time
2 | CCN(C)CCc1c[nH]c2ccc(OC)c(C)c12 [Example P-37, N-ethyl-2-(5-methoxy-4-methyl-1H-indol-3-yl)-N-methylethan-1-amine] | 80.3 | 30.9 | 53.1 | decrease immobility time
